Test results published in patent US20160291027A1, “METHODS FOR […] ABILITY OF A Z[…] COMPOUND TO TREAT CANCER” (Eisai R&D Management Co., Ltd., priority 2007, published 2016).

Key:
[1] = system: panel of 31 melanoma cell lines; test: MTS cell viability assay in a panel of 31 melanoma cell lines; type: cell-based; settings: for % of Less Sensitive cell lines / Less sensitive cell lines (number/total) / Sensitive cell lines (number/total): Cut-Off IC50 < 100 nmol/L; for Number of sensitive cell lines: sensitivity defined as IC50<500 nmol/L
Description: Cell viability was also assessed in a panel of 31 melanoma cell lines carrying different mutations in BRAF following treatment with a zearalenone analog compound, Compound 106. All assays were performed in a 96 well format. Cell viability was assessed after four days following treatment. Cell viability was assessed with a MTS Assay (CellTiter96®AqueousOne Solution Cell Proliferation Assay, Promega) in a panel of cell lines carrying various BRAF mutations to determine the effect of BRAF genotype on drug sensitivity. The mutational status of these cell lines and IC50 in nmol/L is depicted in FIG. 3C.
Cell viability was assessed in a panel of melanoma cell lines carrying different mutations in BRAF, and PTEN following treatment with the MEK inhibitor, Compound 106. The panel of 31 melanoma cell lines was tested with eight concentrations of Compound 106 ranging from 10 μmol/L to 0.0003 μmol/L of Compound 106. (The panel of cell lines also carries mutations in one or more additional genes associated with cancer).
All assays were performed in a 96 well format. Cell viability was assessed after four days following treatment. Cell viability was assessed with a MTS Assay (CellTiter96®AqueousOne Solution Cell Proliferation Assay, Promega) to determine the effect of genotype on drug sensitivity.

[2] = system: LOX human melanoma xenografts; test: Immunohistochemistry of LOX xenografts after single dosing; type: in vivo, mice; settings: single 40 mg/kg i.v.
Description: LOX human melanoma cells, which carry the V600E BRAF mutation, were originally obtained from the DCTD Tumor Repository (Frederick, Md.). The cells were grown in monolayer cultures in DCTD-recommended growth media at 37° C. in a 5% CO2 humidified incubator. On the day of subcutaneous (s.c.) injections of the cells, growth medium was removed, flasks were washed with PBS, and cells were collected with trypsinization. The cells were washed and collected by centrifugation, and then resuspended in ice-cold PBS at a concentration of 1×10^7 cells/mL. The cells (1×10^6 cells) were inoculated s.c. in female athymic NU/NU mice near the right axillary area using a 27-gauge needle with a volume of 0.1 mL, and allowed to grow. Compound 106 was administered intravenously (i.v.) on a single dosing at the dosage level of 40 mg/kg with a volume of injection 0.1 mL per 10 g body weight. Then, the mice were euthanized at different time points including 0, 1, 2, 4, 8, 12, 24, 48, 72 h after dosing. The tumor tissue was dissected and fixed with 10% formalin for immunohistochemistry.
For immunohistochemical detection of phospho-ERK 1/2, rabbit mAb 20011 was used at a final concentration of […] (Cell Signaling, Cat. No. 4376). This mAb detects endogenous levels of p44 and p42 MAP Kinase (ERK1 and ERK2) when dually phosphorylated at Thr202 and Tyr204 of ERK1 (Thr185 and […] of ERK2), and singly phosphorylated at Thr202. Conditions were essentially as described in IHC Procedure (2), with incubation overnight (18 hr) at 4° C. and EDTA retrieval buffer. Secondary reagent was goat anti-rabbit antibody, conjugated to alkaline phosphatase.
For immunohistochemical detection of phospho-RB, anti-phospho-Retinoblastoma (pSer780) antibody (Sigma, Cat. No. R6275) was used (Table 10). Conditions were as described in IHC Procedure (1), with incubation for one hour at room temperature and EDTA retrieval buffer. Secondary reagent was anti-rabbit antibody, conjugated to horseradish peroxidase.

[3] = mutant BRAF gene (20 cell lines)
[4] = total cell lines (31 cell lines)
[5] = wild-type BRAF gene (11 cell lines)

## CCNc1cc(O)c2c(c1)/C=C/C[C@H](O)[C@H](O)C(=O)/C=C\[C@@H](C)[C@H](C)OC2=O [Compound 106]
[1]; [3]
  % of Less Sensitive cell lines: (25%)
  Less sensitive cell lines (number/total): 5/20
  Sensitive cell lines (number/total): 15/20
[1]; [4]
  % of Less Sensitive cell lines: (42%)
  Less sensitive cell lines (number/total): 13/31
[1]; [5]
  % of Less Sensitive cell lines: (73%)
  Less sensitive cell lines (number/total): 8/11
  Sensitive cell lines (number/total): 3/11
[1]; PTEN gene Mutant (8 cell lines), Total
  % of Cell lines with IC50 < 100 nmol/L: (50%)
[1]; PTEN gene Mutant, BRAF Mutant
  % of Cell lines with IC50 < 100 nmol/L: (50%)
[1]; PTEN gene Mutant, BRAF Wild Type
  % of Cell lines with IC50 < 100 nmol/L: (0%)
[1]; PTEN gene Wild Type (23 cell lines), Total
  % of Cell lines with IC50 < 100 nmol/L: (65%)
[1]; PTEN gene Wild Type, BRAF Mutant
  % of Cell lines with IC50 < 100 nmol/L: (86%)
[1]; PTEN gene Wild Type, BRAF Wild Type
  % of Cell lines with IC50 < 100 nmol/L: (33%)
[1]; p-AKT expression High (G2-G3), BRAF Mutant
  % of Cell lines with IC50 < 100 nmol/L: (67%)
[1]; p-AKT expression High (G2-G3), BRAF Wild Type
  % of Cell lines with IC50 < 100 nmol/L: (0%)
[1]; p-AKT expression High (G2-G3), Total
  % of Cell lines with IC50 < 100 nmol/L: (57%)
[1]; p-AKT expression Low (G0-G1), BRAF Mutant
  % of Cell lines with IC50 < 100 nmol/L: (79%)
[1]; p-AKT expression Low (G0-G1), BRAF Wild Type
  % of Cell lines with IC50 < 100 nmol/L: (30%)
[1]; p-AKT expression Low (G0-G1), Total
  % of Cell lines with IC50 < 100 nmol/L: (58%)
[1]; of the 8 cell lines with mutant PTEN or loss of PTEN
  Number of sensitive cell lines: 3 cell lines
[1]; of the 23 cell lines with wild-type PTEN
  Number of sensitive cell lines: 12 cell lines
[2]
  Time for phospho-ERK staining to recover to baseline levels: ≤ 24 h
[2]; 8 hour time-point
  Phospho-ERK staining (IHC): essentially no observable staining
[2]; between 24 and 48 hours, through 72 hours
  Ki67 staining (IHC): suppressed to below detection
[2]; between 48 and 72 hours
  phospho-pRB level (IHC): suppressed to below detection
